Source: patent publication US20220394979A1 (priority 2021, published 2022)
Like-named read-outs stand apart in the source and are kept apart here.

How the values were obtained:
C. perfringes = details: Ammonia at 0.1% w/w
[1] = recommended storage conditions; cited from earlier work
[2] = test system: parasites and protozoan oocysts; details: 20,000 mg/L ammonium phosphate, NH3 30 mg/L at pH 7.4, 300 mg/L at pH 8.4, cited from earlier work
virus = details: quat 0.5% (5 g/L), cited from earlier work
bacteria = details: quat 0.5% (5 g/L), cited from earlier work

Compound: N [Ammonia]
- level of C. perfringes after treatment (C. perfringes; raw biosolids at 1×10^7): less than 2×10^2
- log reduction of spore forming bacteria and parasites (C. perfringes; raw biosolids): five log reductions

Compound: N.N.O=P(O)(O)O [Ammonium Phosphate/Nonionized Ammonia, Ammonium Phosphate Dibasic]
- Storage stability [1]: Stable under recommended storage
- Degree of Inactivation: log reduction of parasites and protozoan oocysts [2]: 6 log reduction of parasites and
- Degree of Inactivation: log reduction of parasites and protozoan oocysts ([2]; listed as Ammonium Phosphate): 6 log reduction of

Compound: C12-C14-alkyl (ethylbenzyl) dimethyl ammonium chloride [Quaternary Amines]
- Degree of Inactivation: log reduction of virus (virus): 6 log reduction, of virus
- Degree of Inactivation: log reduction of virus (virus; listed as Quats): 6 log reduction. of
- Degree of Inactivation: log reduction of bacteria (bacteria): 9 log reduction of bacteria
- Degree of Inactivation: log reduction of bacteria (bacteria; listed as Quats): 9 log reduction of
